In US6777387B2, “Terminally-branched polymeric linkers containing extension moieties and polymeric conjugates containing the same” (Enzon Pharmaceuticals, Inc., priority 2000, dated 2004):

Legend:
P388/0 = test: Cytotoxicity assay, P388/0 cells (Alamar Blue); format: cell-based; conditions: 37° C., 3 days incubation, duplicate, SD ±10%
Description: Cell Lines and Cytotoxicity Assays. Studies using P388/0 cell lines for IC50 (drug concentration inhibiting growth of cells by 50%) were maintained and conducted as previously reported. Briefly, for IC50 determination, cells were seeded into the microwell plates at a density […] per 50 μL per well. Plates were incubated at 37° C. in a humidified incubator with 5% CO2 for 3 days. Cell growth was measured by the addition of 10 μL/well of Alamar Blue (Alamar Biosciences, Inc., Sacramento, Calif.) and the plates were incubated a further 4 hours at 37° C. The IC50 values for each compound were determined from absorbance versus dilution factor plots. […] All cell lines were periodically tested for Mycoplasma and were Mycoplasma free.

[1] = system: human non-small cell lung carcinoma (LX-1); test: Efficacy against subcutaneous LX-1 xenograft in nude mice; format: in vivo; conditions: i.v.; for T/C(%) at Day 14: median tumor volume treated vs control when control ~1000 mm^3; for T/C (%) at Day 21: median tumor volume treated vs control when control ~2000 mm^3
Description: ^13C NMR spectra were obtained at 67.80 MHz on the JNM GSX-270 or 75.46 MHz on the Varian MercuryVX-300. Chemical shifts (δ) are reported in parts per million (ppm) downfield from tetramethylsilane (TMS) and coupling constants (J values) are given in hertz (Hz). All PEG conjugated compounds were dissolved (˜15 mg/mL) in sterile saline (0.9%) for injection prior to in vivo drug treatments and were given as their ara-C equivalents (absolute amount of ara-C given).
Athymic nude mice were implanted subcutaneous with a 4-5 mm^3 tissue fragment of LX-1 collected from donor mice. The tumor trocar site was observed twice weekly and measured once palpable. The tumor volume for each mouse was determined by measuring two dimensions with calipers and calculated using the formula: tumor volume=(length×width^2)/2. […] The mice were sorted to evenly distribute tumor size, grouped into 4 to 6 mice/group, and ear punched for permanent identification. Drugs were administered intravenously q3d×4 (Day 1, 4, 7 and 10) via the tail vein at an approximate rate of 0.5 mL per minute. Compounds were given both at an equal molar basis (absolute amount of active) of 20 mg/kg and at close their respective MTD (Ara-C, 100 mg/kg/dose (toxicity); PEG-AraC, 40 to 60 mg/kg/dose (volume). Mouse weight and tumor size were measured at the beginning of study and twice weekly through week 4. Drug effectiveness was determined by comparing tumor growth in treated versus untreated (no vehicle) control mice. Five types of endpoints were used as the basis for comparison: (a) mean tumor volumes at Day 28; (b) mean percent change in individual tumor volumes from initial; (c) percent difference in tumor volume (%T/C), measured when the control group's median tumor volume reached approximately 800-1100 mm^3 (exponential growth phase); (d) percent difference in tumor volume (%T/C) at Day 21 (˜2000 mm^3) and (e) the number of tumor regression (smaller tumor volume at Day 21 (˜2000 mm^3) and (e) the number of tumor regression (smaller tumor volume on Day 28 compared to Day 1) per group.

## Nc1ccn([C@@H]2O[C@H](CO)[C@@H](O)[C@@H]2O)c(=O)n1 [Ara-C, ara-C]
P388/0
  IC50: 10 nM
[1]; total dose 80 mg/kg
  Complete Regression (#/Grp): 0/4
  Regression at Day 28 (#/Grp): 0/4
  T/C(%) at Day 14: 51.1%
  T/C (%) at Day 21: 52.2%
[1]; total dose 400 mg/kg
  Complete Regression (#/Grp): 0/6
  Regression at Day 28 (#/Grp): 1/6
  T/C(%) at Day 14: 16.7%
  T/C (%) at Day 21: 33.4%
